Assay results taken from PubChem BioAssay (NCI).
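The concentration for 50% growth inhibition is given as GI50. Definition used: TGI = concentration required for complete inhibition of growth.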

Tests used:
Experiment in all cases: NCI anticancer screen, dose series, 384-well format
HCT-15 colon = tested on: HCT-15 colon
HL-60(TB) leukemia = tested on: HL-60(TB) leukemia
KM12 colon = tested on: KM12 colon
NCI-H522 lung = tested on: NCI-H522 lung
HOP-92 NSCLC = tested on: HOP-92 NSCLC
NCI-H226 lung = tested on: NCI-H226 lung
SN12C renal = tested on: SN12C renal
RXF 393 renal = tested on: RXF 393 renal
U251 glioblastoma = tested on: U251 glioblastoma
MDA-MB-468 breast = tested on: MDA-MB-468 breast
UACC-62 melanoma = tested on: UACC-62 melanoma
SF-539 CNS = tested on: SF-539 CNS
CAKI-1 renal = tested on: CAKI-1 renal
T-47D breast = tested on: T-47D breast
UO-31 renal = tested on: UO-31 renal
BT-549 breast = tested on: BT-549 breast
NCI/ADR-RES ovarian = tested on: NCI/ADR-RES ovarian
EKVX NSCLC = tested on: EKVX NSCLC
786-0 renal = tested on: 786-0 renal
HCC-2998 colon = tested on: HCC-2998 colon
M14 melanoma = tested on: M14 melanoma
OVCAR-5 ovarian = tested on: OVCAR-5 ovarian
SF-268 CNS = tested on: SF-268 CNS
NCI-H23 lung = tested on: NCI-H23 lung
A549 NSCLC = tested on: A549 NSCLC
UACC-257 melanoma = tested on: UACC-257 melanoma
SK-OV-3 ovarian = tested on: SK-OV-3 ovarian
HOP-62 NSCLC = tested on: HOP-62 NSCLC
LOX IMVI melanoma = tested on: LOX IMVI melanoma
RPMI-8226 leukemia = tested on: RPMI-8226 leukemia
MDA-MB-231 breast = tested on: MDA-MB-231 breast
ACHN renal = tested on: ACHN renal
MCF7 breast = tested on: MCF7 breast
MOLT-4 leukemia = tested on: MOLT-4 leukemia
SNB-19 CNS = tested on: SNB-19 CNS
NCI-H322M lung = tested on: NCI-H322M lung
COLO 205 colon = tested on: COLO 205 colon
A498 renal = tested on: A498 renal
MALME-3M melanoma = tested on: MALME-3M melanoma
SR leukemia = tested on: SR leukemia
SK-MEL-5 melanoma = tested on: SK-MEL-5 melanoma
SK-MEL-28 melanoma = tested on: SK-MEL-28 melanoma
IGROV1 ovarian = tested on: IGROV1 ovarian
OVCAR-3 ovarian = tested on: OVCAR-3 ovarian
DU-145 prostate = tested on: DU-145 prostate
OVCAR-8 ovarian = tested on: OVCAR-8 ovarian
CCRF-CEM leukemia = tested on: CCRF-CEM leukemia
SW-620 colon = tested on: SW-620 colon
OVCAR-4 ovarian = tested on: OVCAR-4 ovarian
SNB-75 CNS = tested on: SNB-75 CNS
NCI-H460 NSCLC = tested on: NCI-H460 NSCLC
SF-295 CNS = tested on: SF-295 CNS
K-562 leukemia = tested on: K-562 leukemia
HT29 colon = tested on: HT29 colon
HS 578T breast = tested on: HS 578T breast

SMILES: NS(=O)(=O)OC[C@@H]1C[C@@H](n2ccc3c(NC4CCc5ccccc54)ncnc32)C[C@@H]1O (stereo not given in full)
- GI50 (HCT-15 colon): 277 nM
- TGI (HCT-15 colon): 11200 nM
- GI50 (HL-60(TB) leukemia): 10.9 nM
- TGI (HL-60(TB) leukemia): 26.6 nM
- GI50 (KM12 colon): 255 nM
- TGI (KM12 colon): 4950 nM
- GI50 (NCI-H522 lung): 42.8 nM
- TGI (NCI-H522 lung): 844 nM
- GI50 (HOP-92 NSCLC): 439 nM
- TGI (HOP-92 NSCLC): 18800 nM
- GI50 (NCI-H226 lung): 112 nM
- TGI (NCI-H226 lung): 804 nM
- GI50 (SN12C renal): 370 nM
- TGI (SN12C renal): 4360 nM
- GI50 (RXF 393 renal): 60.1 nM
- TGI (RXF 393 renal): 304 nM
- GI50 (U251 glioblastoma): 254 nM
- TGI (U251 glioblastoma): 12500 nM
- GI50 (MDA-MB-468 breast): 13.5 nM
- TGI (MDA-MB-468 breast): 64.9 nM
- GI50 (UACC-62 melanoma): 20.2 nM
- TGI (UACC-62 melanoma): 137 nM
- GI50 (SF-539 CNS): 85.3 nM
- TGI (SF-539 CNS): 260 nM
- GI50 (CAKI-1 renal): 76.4 nM
- TGI (CAKI-1 renal): > 100000 nM
- GI50 (T-47D breast): 142 nM
- TGI (T-47D breast): 15800 nM
- GI50 (UO-31 renal): 3180 nM
- TGI (UO-31 renal): > 100000 nM
- GI50 (BT-549 breast): 56.7 nM
- TGI (BT-549 breast): 491 nM
- GI50 (NCI/ADR-RES ovarian): 1520 nM
- TGI (NCI/ADR-RES ovarian): 11300 nM
- GI50 (EKVX NSCLC): 2430 nM
- TGI (EKVX NSCLC): > 100000 nM
- GI50 ([…]-0 renal): 226 nM
- TGI (786-0 renal): 1130 nM
- GI50 (HCC-2998 colon): 434 nM
- TGI (HCC-2998 colon): 5530 nM
- GI50 (M14 melanoma): 151 nM
- TGI (M14 melanoma): 1050 nM
- GI50 (OVCAR-5 ovarian): 554 nM
- TGI (OVCAR-5 ovarian): 13600 nM
- GI50 (SF-268 CNS): 238 nM
- TGI (SF-268 CNS): 4970 nM
- GI50 (NCI-H23 lung): 212 nM
- TGI (NCI-H23 lung): 1380 nM
- GI50 (A549 NSCLC): 405 nM
- TGI (A549 NSCLC): 13800 nM
- GI50 (UACC-257 melanoma): 162 nM
- TGI (UACC-257 melanoma): 10500 nM
- GI50 (SK-OV-3 ovarian): 206 nM
- TGI (SK-OV-3 ovarian): 703 nM
- GI50 (HOP-62 NSCLC): 114 nM
- TGI (HOP-62 NSCLC): 372 nM
- GI50 (LOX IMVI melanoma): 39.9 nM
- TGI (LOX IMVI melanoma): 168 nM
- GI50 (RPMI-8226 leukemia): 126 nM
- TGI (RPMI-8226 leukemia): 1560 nM
- GI50 (MDA-MB-231 breast): 216 nM
- TGI (MDA-MB-231 breast): 2730 nM
- GI50 (ACHN renal): 227 nM
- TGI (ACHN renal): 735 nM
- GI50 (MCF7 breast): 32.9 nM
- TGI (MCF7 breast): 424 nM
- GI50 (MOLT-4 leukemia): 29 nM
- TGI (MOLT-4 leukemia): 117 nM
- GI50 (SNB-19 CNS): 372 nM
- TGI (SNB-19 CNS): 28500 nM
- GI50 (NCI-H322M lung): 333 nM
- TGI (NCI-H322M lung): 11100 nM
- GI50 (COLO 205 colon): 40.6 nM
- TGI (COLO 205 colon): 292 nM
- GI50 (A498 renal): 43.8 nM
- TGI (A498 renal): 10400 nM
- GI50 (MALME-3M melanoma): 202 nM
- TGI (MALME-3M melanoma): 766 nM
- GI50 (SR leukemia): 24.3 nM
- TGI (SR leukemia): 79.1 nM
- GI50 (SK-MEL-5 melanoma): 34.3 nM
- TGI (SK-MEL-5 melanoma): 223 nM
- GI50 (SK-MEL-28 melanoma): 163 nM
- TGI (SK-MEL-28 melanoma): 1880 nM
- GI50 (IGROV1 ovarian): 257 nM
- TGI (IGROV1 ovarian): 4400 nM
- GI50 (OVCAR-3 ovarian): 43.2 nM
- TGI (OVCAR-3 ovarian): 3550 nM
- GI50 (DU-145 prostate): 68.6 nM
- TGI (DU-145 prostate): 14000 nM
- GI50 (OVCAR-8 ovarian): 119 nM
- TGI (OVCAR-8 ovarian): 316 nM
- GI50 (CCRF-CEM leukemia): 24.6 nM
- TGI (CCRF-CEM leukemia): 126 nM
- GI50 (SW-620 colon): 602 nM
- TGI (SW-620 colon): 15700 nM
- GI50 (OVCAR-4 ovarian): 210 nM
- TGI (OVCAR-4 ovarian): 799 nM
- GI50 (SNB-75 CNS): 178 nM
- TGI (SNB-75 CNS): 627 nM
- GI50 (NCI-H460 NSCLC): 274 nM
- TGI (NCI-H460 NSCLC): 958 nM
- GI50 (SF-295 CNS): 176 nM
- TGI (SF-295 CNS): 333 nM
- GI50 (K-562 leukemia): 62.7 nM
- TGI (K-562 leukemia): 10900 nM
- GI50 (HT29 colon): 256 nM
- TGI (HT29 colon): 11600 nM
- GI50 (HS 578T breast): 186 nM
- TGI (HS 578T breast): 13200 nM
